Values of other authors in patent publication US6867034B2, “Methods of screening novel agents for use in cancer therapy and prevention” (The Curators of The University of Missouri, priority 2000, dated 2005).

Legend:
Dictyostelium cells = conditions: 300 μM cisplatin
repD = conditions: after cisplatin treatment, versus basal levels
repB = conditions: after cisplatin treatment, versus basal levels

N.N.[Cl][Pt][Cl] [cisplatin]
viability of the cells (Dictyostelium cells): reduced by three orders of magnitude
levels of repD mRNA (repD): rapidly increase from basal levels
levels of repB mRNA (repB): rapidly increase from basal levels
